Reference: publication PMC10673511, “Design, Synthesis and Bioactivity Evaluation of Heterocycle-Containing Mono- and Bisphosphonic Acid Compounds” (Molecules, 2023)
≈ marks a conversion by molar mass, not a printed value. Like-named read-outs stand apart in the source and are kept apart here.

Legend:
[1] = molecular target: recombinant E. coli DXR (EcDXR) (Escherichia coli, UniProt P45568); test: biochemical; details: for inhibition at 100 µM: read-out: InR (%) on DXR enzyme
Arabidopsis thaliana [2] = test: Arabidopsis growth inhibition assay (24-well plates, green channel pixel value); details: for EC50 / pest or weed control at 100 µg/mL: Arabidopsis thaliana, 240 h; for EC50: read-out: EC50 against Arabidopsis growth; for pest or weed control at 100 µg/mL: read-out: InR (%) against Arabidopsis
Echinochloa crus-galli [3] = test: Pre-emergence herbicidal inhibition assay, Petri dish test, EC; assay type: in vivo; details: for EC50: Echinochloa crus-galli, 168 h; for Relative activity ratio (EC root) / Relative activity ratio (EC stalk): relative to FOS
Description: (§1) The pre-emergence activity of the compounds against monocot Echinochloa crus-galli (EC) and dicot Brassica napus L. (BN) was evaluated using the standard Petri dish test. The compounds were dissolved in DMF, emulsified with Tween-80 and diluted with water to form stock solutions, each of which was further diluted to a gradient of 100, 50, 25, 10 and 1 mg/L for test. The test solutions were added to Petri dishes lined with a filter paper, on which 10 seeds of EC and BN were placed. After cultured in an intelligent climate chamber with a humidity of 65% at 26 °C for 7 days, the corresponding EC50 values were calculated.

Echinochloa crus-galli [4] = test: Post-emergence herbicidal inhibition assay, EC; assay type: in vivo; details: for Loss of Weight (%) EC / Visual Evaluation EC: 300 g ai/ha spray, two weeks after treatment; for Loss of Weight (%) EC: fresh weighing
Description: (§2) The post-emergence activity of compounds against EC and Amaranthus retroflexus (AR) was determined at a dose of 300 g ai/ha. The model plants initially grow as seedlings, and a few days prior to treatment, five seedlings with similar growth conditions for the plant were transplanted into one pot containing nutrient soil. The test solutions were prepared by dissolving the compounds in water containing DMF and Tween-80 and sprayed when the plant grew to the 1~2 leaf stage. The herbicidal activity was evaluated via visual observation and fresh weighing after two weeks of treatment.

Brassica napus L. = test: Pre-emergence herbicidal inhibition assay, Petri dish test, BN; assay type: in vivo; details: for EC50: Brassica napus, 168 h; for Relative activity ratio (BN root) / Relative activity ratio (BN stalk): relative to FOS
Description: as §1

Amaranthus retroflexus = test: Post-emergence herbicidal inhibition assay, AR; assay type: in vivo; details: 300 g ai/ha spray, two weeks after treatment; for Loss of Weight (%) AR: fresh weighing
Description: as §2

Arabidopsis thaliana [5] = test: DMAPP rescue on Arabidopsis; assay type: in vivo; details: FOS 40 mg/L; for rescue of developmental arrest and bleaching by DMAPP (change of pixel values): 13e 20 mg/L, t-test
Description: The DMAPP rescue on Arabidopsis was conducted using the afore-mentioned culture conditions. […] To one of the two species in each group, an additional 150 μg of DMAPP (Aladdin) was added. After 10 days of cultivation, the green channel pixel values of Arabidopsis in each well were measured. A two-tailed paired Student’s t-test was used to compare the two species within the same group, and p < 0.05 indicates a statistically significant difference.

MtDXR = tested on: MtDXR; set-up: method as in PMID 21824775; details: cited from earlier work
[6] = root, 7 days, read-out: EC50 EC Root
[7] = stalk, 7 days, read-out: EC50 EC Stalk
[8] = root, 7 days, read-out: EC50 BN Root
[9] = stalk, 7 days, read-out: EC50 BN Stalk

Sequence of recombinant E. coli DXR (EcDXR) (P45568 whole entry): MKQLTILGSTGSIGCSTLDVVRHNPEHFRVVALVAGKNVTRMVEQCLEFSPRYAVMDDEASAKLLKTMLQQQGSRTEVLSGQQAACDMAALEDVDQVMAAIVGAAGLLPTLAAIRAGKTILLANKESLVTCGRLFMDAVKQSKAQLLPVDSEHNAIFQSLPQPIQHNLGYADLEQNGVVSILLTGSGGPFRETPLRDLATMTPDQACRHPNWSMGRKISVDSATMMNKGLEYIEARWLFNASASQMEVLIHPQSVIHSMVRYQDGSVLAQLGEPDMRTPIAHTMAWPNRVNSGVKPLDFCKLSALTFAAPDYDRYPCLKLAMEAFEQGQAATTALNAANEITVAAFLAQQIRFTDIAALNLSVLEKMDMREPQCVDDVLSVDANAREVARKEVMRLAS

| Compound | inhibition at 100 µM [1] | EC50 (Arabidopsis thaliana [2]) | pest or weed control at 100 µg/mL (Arabidopsis thaliana [2]) | Relative activity ratio (EC root) (Echinochloa crus-galli [3]) | Relative activity ratio (EC stalk) (Echinochloa crus-galli [3]) | Loss of Weight (%) EC (Echinochloa crus-galli [4]) | Visual Evaluation EC (Echinochloa crus-galli [4]) | Relative activity ratio (BN root) (Brassica napus L.) | Relative activity ratio (BN stalk) (Brassica napus L.) | Loss of Weight (%) AR (Amaranthus retroflexus) | Visual Evaluation AR (Amaranthus retroflexus) | melting point | EC50 (Echinochloa crus-galli [3]; [6]) | EC50 (Echinochloa crus-galli [3]; [7]) | EC50 (Brassica napus L.; [8]) | EC50 (Brassica napus L.; [9]) | other results |
| --- | --- | --- | --- | --- | --- | --- | --- | --- | --- | --- | --- | --- | --- | --- | --- | --- | --- |
| Cc1onc(O)c1CCP(=O)(O)O [Compound 6a] | 15.8% | 28.6 ± 3.9 µg/mL (≈ 138 µM) | 90.4% | 1.7 fold | 2.0 fold | 30.8% | + (“+”: ≥20%) | 2.0 fold | 3.1 fold | 35.6% | + (“+”: ≥20%) |  |  |  |  |  | EC50 (Echinochloa crus-galli [3]; read-out: EC50 EC Root): 24 µg/mL (≈ 116 µM); EC50 (Echinochloa crus-galli [3]; read-out: EC50 EC Stalk): 18.9 µg/mL (≈ 91.3 µM); EC50 (Brassica napus L.; read-out: EC50 BN Root): 17.3 µg/mL (≈ 83.5 µM); EC50 (Brassica napus L.; read-out: EC50 BN Stalk): 10.5 µg/mL (≈ 50.7 µM) |
| CC1(C)CON(CCCC(P(=O)(O)O)P(=O)(O)O)C1=O [Compound 20] | 29.5% | > 100 µg/mL | 47.9% | 1.0 fold | 1.5 fold | 22.9% | + (“+”: ≥20%) | 1.0 fold | 4.0 fold | 23.6% | + (“+”: ≥20%) | > 250 °C | 40 µg/mL (≈ 121 µM) | 25.2 µg/mL (≈ 76.1 µM) | 34.6 µg/mL (≈ 104 µM) | 8.2 µg/mL (≈ 24.8 µM) |  |
| Cc1onc(O)c1CC(P(=O)(O)O)P(=O)(O)O [Compound 13a] | 60.2% | 21.6 ± 3.8 µg/mL (≈ 75.2 µM) | 100% | 1.5 fold | 3.8 fold | 35.8% | + (“+”: ≥20%) | 1.3 fold | 3.9 fold | 52.3% | ++ (“++”: ≥40%) |  | 27.1 µg/mL (≈ 94.4 µM) | 10.2 µg/mL (≈ 35.5 µM) | 26.9 µg/mL (≈ 93.7 µM) | 8.5 µg/mL (≈ 29.6 µM) | IC50 [1]: 77.9 µM |
| CCc1n[nH]c(CC)c1CC(P(=O)(O)O)P(=O)(O)O [Compound 12h] | 2.3% | > 100 µg/mL | 41.2% |  |  |  |  |  |  |  |  | > 250 °C | 44.2 µg/mL (≈ 142 µM) | 31.1 µg/mL (≈ 99.6 µM) | 40.1 µg/mL (≈ 128 µM) | 22.3 µg/mL (≈ 71.4 µM) |  |
| CC(C)c1n[nH]c(O)c1CC(P(=O)(O)O)P(=O)(O)O [Compound 12d] | 12.4% | > 100 µg/mL | 44.8% |  |  |  |  |  |  |  |  | > 250 °C | > 100 µg/mL | 39.1 µg/mL (≈ 124 µM) | 21.2 µg/mL (≈ 67.5 µM) | 41.5 µg/mL (≈ 132 µM) |  |
| O=P(O)(O)C(Cc1c(O)noc1C(F)(F)F)P(=O)(O)O [Compound 13e] | 54.9% | 7.8 ± 1.2 µg/mL (≈ 22.9 µM) | 100% | 5.4 fold | 9.4 fold | 53.5% | ++ (“++”: ≥40%) | 3.2 fold | 14.3 fold | 70.3% | +++ (“+++”: ≥60%) |  | 7.4 µg/mL (≈ 21.7 µM) | 4.1 µg/mL (≈ 12 µM) | 10.7 µg/mL (≈ 31.4 µM) | 2.3 µg/mL (≈ 6.74 µM) | fold inhibitory activity on Arabidopsis relative to FOS (Arabidopsis thaliana [2]; from EC50 values): 3.7 fold; fold more active than FOS, inhibition rate on EC via fresh weighing (Echinochloa crus-galli [4]; post-emergence, 300 g ai/ha): 1.0 fold; rescue of developmental arrest and bleaching by DMAPP (change of pixel values) (Arabidopsis thaliana [5]; DMAPP 150 mg/L): did not show a significant increase |
| CC(C)c1onc(O)c1CC(P(=O)(O)O)P(=O)(O)O [Compound 13d] | 14% | 23.1 ± 1.9 µg/mL (≈ 73.3 µM) | 93.2% | 1.5 fold | 2.8 fold | 34.9% | + (“+”: ≥20%) | 1.4 fold | 3.0 fold | 45.7% | ++ (“++”: ≥40%) |  | 27.2 µg/mL (≈ 86.3 µM) | 13.5 µg/mL (≈ 42.8 µM) | 25.2 µg/mL (≈ 80 µM) | 11 µg/mL (≈ 34.9 µM) |  |
| O=CN(O)CCCP(=O)(O)O [FOS, Fosmidomycin, reference compound] | 98.7% | 27.5 ± 3.1 µg/mL (≈ 150 µM) | 86.8% |  |  | 27.4% | + (“+”: ≥20%) |  |  | 31.5% | + (“+”: ≥20%) |  | 40.2 µg/mL (≈ 220 µM) | 38.4 µg/mL (≈ 210 µM) | 34.7 µg/mL (≈ 190 µM) | 32.9 µg/mL (≈ 180 µM) | IC50 (MtDXR): 0.08 µM; rescue of developmental arrest and bleaching by DMAPP (change of pixel values) (Arabidopsis thaliana [5]; DMAPP 150 mg/L): rescued; green channel pixel value of Arabidopsis images, without DMAPP (Arabidopsis thaliana [5]; 10 days): 32,789; green channel pixel value of Arabidopsis images, with DMAPP (Arabidopsis thaliana [5]; DMAPP 150 mg/L, 10 days): 54,164 |
| CCc1noc(CC)c1CCP(=O)(O)O [Compound 6f] | 11.7% | > 100 µg/mL | 13.4% |  |  |  |  |  |  |  |  | > 250 °C | > 100 µg/mL | 41.7 µg/mL (≈ 179 µM) | > 100 µg/mL | > 100 µg/mL |  |
| CCc1n[nH]c(CC)c1CCP(=O)(O)O [Compound 5f] | 32.4% | > 100 µg/mL | 37.7% |  |  |  |  |  |  |  |  | > 250 °C | 71.6 µg/mL (≈ 308 µM) | 31.4 µg/mL (≈ 135 µM) | > 100 µg/mL | > 100 µg/mL |  |
| CCCc1n[nH]c(O)c1CC(P(=O)(O)O)P(=O)(O)O [Compound 12c] | 32.3% | > 100 µg/mL | 49.7% |  |  |  |  |  |  |  |  | > 250 °C | 68.3 µg/mL (≈ 217 µM) | 36.4 µg/mL (≈ 116 µM) | 55.1 µg/mL (≈ 175 µM) | 33.1 µg/mL (≈ 105 µM) |  |
